This experiment deals with T1, PR65 (PP2A scaffold subunit A) (Homo sapiens, UniProt P30153).
T1 construct: gene PPP2R1A; WT PR65, 15 HEAT repeats (GST tag cleaved); ybbR-tagged PR65 for optical tweezers
The experiment in a line: fluorescence polarisation (PR65 titrated into fluorescent ATUX-8385); also nanoDSF shift and optical tweezers. It counts as binding. A general note: In fluorescence polarisation assays a small probe gives low polarisation when free and higher when bound to something large.

T1 sequence (P30153 2-589): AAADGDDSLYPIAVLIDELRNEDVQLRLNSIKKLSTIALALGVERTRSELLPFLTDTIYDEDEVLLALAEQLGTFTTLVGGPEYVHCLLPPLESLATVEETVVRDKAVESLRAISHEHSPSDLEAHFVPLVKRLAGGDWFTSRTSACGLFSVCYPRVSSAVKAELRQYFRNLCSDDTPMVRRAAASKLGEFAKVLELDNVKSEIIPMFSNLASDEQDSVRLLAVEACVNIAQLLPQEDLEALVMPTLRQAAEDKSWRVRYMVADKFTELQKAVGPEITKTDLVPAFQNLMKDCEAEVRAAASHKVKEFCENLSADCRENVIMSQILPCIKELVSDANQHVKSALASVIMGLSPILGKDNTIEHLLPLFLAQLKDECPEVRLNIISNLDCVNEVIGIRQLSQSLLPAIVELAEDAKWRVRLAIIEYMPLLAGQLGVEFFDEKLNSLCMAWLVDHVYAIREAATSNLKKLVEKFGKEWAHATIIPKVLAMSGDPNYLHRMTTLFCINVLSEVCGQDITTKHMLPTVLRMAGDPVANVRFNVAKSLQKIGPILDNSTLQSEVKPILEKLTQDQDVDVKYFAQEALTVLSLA

Take `O=S(=O)(NC1CNCC(n2c3ccc(F)cc3c3cc(F)ccc32)C1O)c1ccc(OC(F)(F)F)cc1` (stereo not shown) [ATUX-8385]: the Kd (commonly a measure of binding affinity in units of concentration) was determined as 4.7 ± 1.1 µM.
